Results from the supplement of paper PMC10307832.

Legend:
Assay in all cases: relative viability (nuclei count vs DMSO), 5 days (fraction); higher = more cells survive
[1] = tested on: NCI-H2228
Outline: (§1)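 Medians of duplicate plates are given as relative viability. That measure is the nuclei count in treated wells divided by the count in vehicle wells. Counts were taken on 4× images of lung cancer cell lines in 1536-well plates, 5 days after pin-tool dosing the day after seeding with one drug alone or a fixed anchor-drug dose plus five library-drug doses (not always all listed) in √10 steps.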

[2] = tested on: NCI-H2405
Outline: as §1

[3] = tested on: NCI-H596
Outline: as §1

[4] = tested on: NCI-H2009
Outline: as §1

[5] = tested on: HARA
Outline: as §1

[6] = tested on: LOU-NH91
Outline: as §1

[7] = tested on: LC-2-ad
Outline: as §1

[8] = tested on: NCI-H1792
Outline: as §1

[9] = tested on: EKVX
Outline: as §1

[10] = tested on: HCC-366
Outline: as §1

[11] = tested on: HCC-827
Outline: as §1

SMILES: NC(=O)Nc1cc(-c2cccc(F)c2)sc1C(=O)N[C@H]1CCCNC1 [AZD7762] + CC1(C)CCC(c2ccc(Cl)cc2)=C(CN2CCN(c3ccc(C(=O)NS(=O)(=O)c4ccc(N[C@H](CCN5CCOCC5)CSc5ccccc5)c(S(=O)(=O)C(F)(F)F)c4)cc3)CC2)C1 [Navitoclax] (partner 0.5 µM)
- relative viability ([1]; first compound 0.01 µM): 1
- relative viability ([1]; first compound 0.03162 µM): 0.552
- relative viability ([1]; first compound 0.1 µM): 1
- relative viability ([1]; first compound 0.3162 µM): 0.666
- relative viability ([1]; first compound 1 µM): 0.354
- relative viability ([2]; first compound 0.01 µM): 0.812
- relative viability ([2]; first compound 0.03162 µM): 0.925
- relative viability ([2]; first compound 0.1 µM): 0.873
- relative viability ([2]; first compound 0.3162 µM): 0.675
- relative viability ([2]; first compound 1 µM): 0.244
- relative viability ([3]; first compound 0.01 µM): 1.14
- relative viability ([3]; first compound 0.03162 µM): 0.936
- relative viability ([3]; first compound 0.1 µM): 1.06
- relative viability ([3]; first compound 0.3162 µM): 0.912
- relative viability ([3]; first compound 1 µM): 0.698
- relative viability ([4]; first compound 0.01 µM): 1.27
- relative viability ([4]; first compound 0.03162 µM): 1.19
- relative viability ([4]; first compound 0.1 µM): 1.25
- relative viability ([4]; first compound 0.3162 µM): 1.13
- relative viability ([4]; first compound 1 µM): 1.08
- relative viability ([5]; first compound 0.01 µM): 1.12
- relative viability ([5]; first compound 0.03162 µM): 1.15
- relative viability ([5]; first compound 0.1 µM): 1.2
- relative viability ([5]; first compound 0.3162 µM): 1.12
- relative viability ([5]; first compound 1 µM): 0.801
- relative viability ([6]; first compound 0.01 µM): 0.753
- relative viability ([6]; first compound 0.03162 µM): 0.673
- relative viability ([6]; first compound 0.1 µM): 0.619
- relative viability ([6]; first compound 0.3162 µM): 0.562
- relative viability ([6]; first compound 1 µM): 0.4
- relative viability ([7]; first compound 0.01 µM): 0.491
- relative viability ([7]; first compound 0.03162 µM): 0.476
- relative viability ([7]; first compound 0.1 µM): 0.415
- relative viability ([7]; first compound 0.3162 µM): 0.414
- relative viability ([7]; first compound 1 µM): 0.309
- relative viability ([8]; first compound 0.01 µM): 0.677
- relative viability ([8]; first compound 0.03162 µM): 0.686
- relative viability ([8]; first compound 0.1 µM): 0.692
- relative viability ([8]; first compound 0.3162 µM): 0.565
- relative viability ([8]; first compound 1 µM): 0.72
- relative viability ([9]; first compound 0.01 µM): 0.954
- relative viability ([9]; first compound 0.03162 µM): 0.863
- relative viability ([9]; first compound 0.1 µM): 0.918
- relative viability ([9]; first compound 0.3162 µM): 0.596
- relative viability ([9]; first compound 1 µM): 0.574
- relative viability ([10]; first compound 0.01 µM): 1.1
- relative viability ([10]; first compound 0.03162 µM): 1.09
- relative viability ([10]; first compound 0.1 µM): 1.06
- relative viability ([10]; first compound 0.3162 µM): 0.687
- relative viability ([10]; first compound 1 µM): 0.165
- relative viability ([11]; first compound 0.01 µM): 1
- relative viability ([11]; first compound 0.03162 µM): 0.918
